“Also recorded” adds a separate entry of the source. Like-named read-outs stand apart in the source and are kept apart here.
Assays:
[1] = biological target: neuraminidase, Influenza Virus A/California/07/2009 H1N1 (Oseltamivir sensitive) (Influenza A virus (A/California/07/2009(H1N1)), UniProt C3W6G3); assay type: biochemical
[2] = system: Influenza Virus A/California/07/2009 H1N1; assay type: cell-based
[3] = system: Influenza Virus A/Maryland/04/2011 H1N1; assay type: cell-based

## CCOC(=O)C1=C[C@@H](OC(CC)CC)[C@H](NC(C)=O)[C@@H](N)C1 [Oseltamivir]
[1]; 0.005 nM
  Average Fluorescence: 66385.00
[1]; 0.05 nM
  Average Fluorescence: 56340.00
[1]; 0.5 nM
  Average Fluorescence: 32060.00
[1]; 5 nM
  Average Fluorescence: 7802.00
[1]; 50 nM
  Average Fluorescence: 1215.00
[1]; 500 nM
  Average Fluorescence: 354.00
[1]; 5,000 nM
  Average Fluorescence: 179.00
[1]; 50,000 nM
  Average Fluorescence: 365.00
[2]
  plaque inhibitory effect (in words): sensitive to this drug to 1 μM; also recorded: inhibitory effects
[3]
  plaque inhibitory effect (in words): only partially sensitive; also recorded: reduced oseltamivir susceptibility

Source: US20150209313A1 (priority 2014, published 2015)
